Measurements: ChEMBL document CHEMBL1143129

Experiments:
[1] = molecular target: Carbonic anhydrase 3 (Homo sapiens) (UniProt P07451)
Description: Inhibition of human recombinant full length carbonic hydrase 3 by stopped-flow CO2 hydration assay

[2] = molecular target: Carbonic anhydrase 13 (Mus musculus) (UniProt Q9D6N1); experiment: Inhibition of mouse recombinant full length carbonic hydrase 13 by stopped-flow CO2 hydration assay
Chain of Carbonic anhydrase 13 (Mus musculus) (Q9D6N1 whole entry, looked up): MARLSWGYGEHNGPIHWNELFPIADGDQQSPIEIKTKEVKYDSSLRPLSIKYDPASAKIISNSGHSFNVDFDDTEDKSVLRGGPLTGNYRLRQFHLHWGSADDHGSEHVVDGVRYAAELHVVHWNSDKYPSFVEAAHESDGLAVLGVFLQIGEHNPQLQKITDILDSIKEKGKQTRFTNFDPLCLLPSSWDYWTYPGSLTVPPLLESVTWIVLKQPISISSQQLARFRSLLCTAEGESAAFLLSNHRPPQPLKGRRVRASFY

Chain of Carbonic anhydrase 3 (Homo sapiens) (P07451 whole entry): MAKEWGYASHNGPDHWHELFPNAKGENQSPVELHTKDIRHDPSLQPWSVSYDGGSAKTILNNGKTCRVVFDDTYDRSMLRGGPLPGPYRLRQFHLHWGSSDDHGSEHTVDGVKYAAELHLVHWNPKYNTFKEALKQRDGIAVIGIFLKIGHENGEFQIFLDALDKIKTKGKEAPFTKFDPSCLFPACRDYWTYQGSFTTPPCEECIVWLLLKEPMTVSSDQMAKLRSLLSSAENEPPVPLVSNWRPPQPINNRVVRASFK

Kinact [1] | Ki [2] [nM] | SMILES
7 10^5nM |  | CC(=O)/N=c1/sc(S(N)(=O)=O)nn1C
3.6 10^5nM | 20 | CN(C)c1nnc(CS(N)(=O)=O)s1
